What was measured:
[1] = molecular target: T1, MTHFD2 recombinant human enzyme (Homo sapiens, UniProt P13995); test: MTHFD2 inhibition assay (NAD(P)H-Glo luminescence); conditions: for MTHFD1/MTHFD2 IC50 ratio: selectivity of MTHFD2 inhibition over MTHFD1, band
T1 sequence (P13995 36-350): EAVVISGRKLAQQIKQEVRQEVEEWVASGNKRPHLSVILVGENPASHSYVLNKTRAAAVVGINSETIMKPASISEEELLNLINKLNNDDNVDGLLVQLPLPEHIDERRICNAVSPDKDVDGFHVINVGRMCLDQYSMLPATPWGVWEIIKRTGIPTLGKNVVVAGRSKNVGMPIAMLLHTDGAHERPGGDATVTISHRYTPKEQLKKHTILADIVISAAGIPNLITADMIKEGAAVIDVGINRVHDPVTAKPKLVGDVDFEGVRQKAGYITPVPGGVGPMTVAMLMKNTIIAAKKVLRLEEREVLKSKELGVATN

[2] = molecular target: T2, MTHFD1 recombinant human enzyme (Homo sapiens, UniProt P11586); test: MTHFD1 inhibition assay (NAD(P)H-Glo luminescence); conditions: MTHFD1 IC50, recombinant human enzyme 200 nM, NADP, band
T2 sequence (P11586 2-291 limits assumed): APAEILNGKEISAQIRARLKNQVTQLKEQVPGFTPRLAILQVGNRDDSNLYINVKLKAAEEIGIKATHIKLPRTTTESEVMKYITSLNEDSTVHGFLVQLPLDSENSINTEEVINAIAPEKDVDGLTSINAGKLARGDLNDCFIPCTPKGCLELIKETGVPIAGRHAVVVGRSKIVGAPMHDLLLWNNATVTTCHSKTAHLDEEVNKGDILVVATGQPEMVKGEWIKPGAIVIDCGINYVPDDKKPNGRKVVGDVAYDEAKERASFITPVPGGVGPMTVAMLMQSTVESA

Compound | IC50 [1] | MTHFD1/MTHFD2 IC50 ratio [1] | IC50 [2]
CCOc1c(C(=O)NS(=O)(=O)N(C2CC2)C2CC2)ccc(C(=O)N2CCc3c(c(=O)oc4c(C)c(N5CCN(C)[C@@H](COC)C5)cc(C)c34)C2)c1F [Example 231] | 10 to 100 nM | F (<3) | 10 to 100 nM
COC[C@H]1CN(c2cc(C)c3c4c(c(=O)oc3c2C)CN(C(=O)c2cc(N(C)C)c(C(=O)NS(=O)(=O)N3CCC(OC)CC3)cc2F)CC4)CCN1C [Example 289, (R)-2-(dimethylamino)-5-fluoro-4-(8-(3-(methoxymethyl)-4-methylpiperazin-1-yl)-7,10-dimethyl-5-oxo-1,3,4,5-tetrahydro-2H-chromeno[3,4-c]pyridine-3-carbonyl)-N-((4-methoxypiperidin-1-yl)sulfonyl)benzamide] | 10 to 100 nM | J (>30) | 100 to 1000 nM
COC[C@H]1CN(c2ccc3c4c(c(=O)oc3c2)CN(C(=O)c2ccc(C(=O)NS(=O)(=O)N3CCCC3)c(OC3CCCC3)c2F)CC4)CCN1C [Example 183, (R)-2-(cyclopentyloxy)-3-fluoro-4-(8-(3-(methoxymethyl)-4-methylpiperazin-1-yl)-5-oxo-1,3,4,5-tetrahydro-2H-chromeno[3,4-c]pyridine-3-carbonyl)-N-(pyrrolidin-1-ylsulfonyl)benzamide] | 100 to 1000 nM | H (>9.0 to 30) | > 5000 nM
COC[C@H]1CN(c2cc(Cl)c3c4c(c(=O)oc3c2C)CN(C(=O)c2cc(N(C)C)c(C(=O)NS(=O)(=O)N3CCC[C@H]3C(F)(F)F)cc2F)CC4)CCN1C [Example 295, 4-(10-chloro-8-((R)-3-(methoxymethyl)-4-methylpiperazin-1-yl)-7-methyl-5-oxo-1,3,4,5-tetrahydro-2H-chromeno[3,4-c]pyridine-3-carbonyl)-2-(dimethylamino)-5-fluoro-N-(((S)-2-(trifluoromethyl)pyrrolidin-1-yl)sulfonyl)benzamide] | 10 to 100 nM | J (>30) | 1000 to 5000 nM
COC[C@H]1CN(c2ccc3c4c(c(=O)oc3c2C)CN(C(=O)c2ccc(C(=O)NS(=O)(=O)N3[C@H](C)CC[C@H]3C)c(OC3CCC3)c2F)CC4)CCN1C [Example 177, 2-cyclobutoxy-N-(((2R,5R)-2,5-dimethylpyrrolidin-1-yl)sulfonyl)-3-fluoro-4-(8-((R)-3-(methoxymethyl)-4-methylpiperazin-1-yl)-7-methyl-5-oxo-1,3,4,5-tetrahydro-2H-chromeno[3,4-c]pyridine-3-carbonyl)benzamide] | 100 to 1000 nM | F (<3) | 100 to 1000 nM
COC[C@H]1CN(c2cc(C)c3c4c(c(=O)oc3c2C)CN(C(=O)c2ccc(C(=O)NS(=O)(=O)N(C)C)c(OC3CCC3)c2C)CC4)CCN1C [Example 179] | 10 to 100 nM | G (^ 3 to 9.0) | 100 to 1000 nM
CCc1c(C(=O)NS(=O)(=O)N2C3CCC2CC3)ccc(C(=O)N2CCc3c(c(=O)oc4c(C)c(N5CCN(C)[C@@H](COC)C5)cc(C)c34)C2)c1F [Example 242] | 10 to 100 nM | H (>9.0 to 30) | 100 to 1000 nM
COC[C@H]1CN(c2cc(C)c3c4c(c(=O)oc3c2C)CN(C(=O)c2cc(OC)c(C(=O)NS(=O)(=O)N(C)C)c(N3CCCC3)c2)CC4)CCN1C [Example 119, (R)-N-(N,N-dimethylsulfamoyl)-2-methoxy-4-(8-(3-(methoxymethyl)-4-methylpiperazin-1-yl)-7,10-dimethyl-5-oxo-1,3,4,5-tetrahydro-2H-chromeno[3,4-c]pyridine-3-carbonyl)-6-(pyrrolidin-1-yl)benzamide] | 10 to 100 nM | G (^ 3 to 9.0) | 100 to 1000 nM
COC[C@H]1CN(c2cc(F)c3c4c(c(=O)oc3c2C)CN(C(=O)c2cc(OC)c(C(=O)NS(=O)(=O)N3C5CCC3CC5)cc2F)CC4)CCN1C [Example 305, (R)-N-((7-azabicyclo[2.2.1]heptan-7-yl)sulfonyl)-5-fluoro-4-(10-fluoro-8-(3-(methoxymethyl)-4-methylpiperazin-1-yl)-7-methyl-5-oxo-1,3,4,5-tetrahydro-2H-chromeno[3,4-c]pyridine-3-carbonyl)-2-methoxybenzamide] | 10 to 100 nM | J (>30) | 1000 to 5000 nM
CCOC[C@H]1CN(c2ccc3c4c(c(=O)oc3c2C)CN(C(=O)c2ccc(C(=O)NS(=O)(=O)N3CCCC3)c(OC3CCC3)c2F)CC4)CCN1C [Example 143, (R)-2-cyclobutoxy-4-(8-(3-(ethoxymethyl)-4-methylpiperazin-1-yl)-7-methyl-5-oxo-1,3,4,5-tetrahydro-2H-chromeno[3,4-c]pyridine-3-carbonyl)-3-fluoro-N-(pyrrolidin-1-ylsulfonyl)benzamide] | 10 to 100 nM | G (^ 3 to 9.0) | 100 to 1000 nM
COC[C@H]1CN(c2cc(C)c3c4c(c(=O)oc3c2C)CN(C(=O)c2ccc(C(=O)NS(=O)(=O)N3CCCC3)c(OC3C[C@@H]5C[C@@H]5C3)c2)CC4)CCN1C (mixture of isomers) [Example 109, 2-(bicyclo[3.1.0]hexan-3-yloxy)-4-(8-((R)-3-(methoxymethyl)-4-methylpiperazin-1-yl)-7,10-dimethyl-5-oxo-1,3,4,5-tetrahydro-2H-chromeno[3,4-c]pyridine-3-carbonyl)-N-(pyrrolidin-1-ylsulfonyl)benzamide] | 10 to 100 nM | F (<3) | 10 to 100 nM
COC[C@H]1CN(c2ccc3c4c(c(=O)oc3c2C)CN(C(=O)c2ccc(C(=O)NS(=O)(=O)N(C)C)c(O[C@@H]3C[C@@H]5C[C@@H]5C3)c2F)CC4)CCN1C [Example 13, 2-(((1R,3r,5S)-bicyclo[3.1.0]hexan-3-yl)oxy)-N-(N,N-dimethylsulfamoyl)-3-fluoro-4-(8-((R)-3-(methoxymethyl)-4-methylpiperazin-1-yl)-7-methyl-5-oxo-1,3,4,5-tetrahydro-2H-chromeno[3,4-c]pyridine-3-carbonyl)benzamide] | 1 to 10 nM | F (<3) | 1 to 10 nM
COC[C@H]1CN(c2ccc3c4c(c(=O)oc3c2C)CN(C(=O)c2cc(N(C)C)c(C(=O)NS(=O)(=O)N3CCC5(CC3)CC5)cc2Cl)CC4)CCN1C [Example 190, (R)-N-((6-azaspiro[2.5]octan-6-yl)sulfonyl)-5-chloro-2-(dimethylamino)-4-(8-(3-(methoxymethyl)-4-methylpiperazin-1-yl)-7-methyl-5-oxo-1,3,4,5-tetrahydro-2H-chromeno[3,4-c]pyridine-3-carbonyl)benzamide] | 100 to 1000 nM | H (>9.0 to 30) | > 5000 nM
COC[C@H]1CN(c2ccc3c4c(c(=O)oc3c2C)CN(C(=O)c2cc(F)c(C(=O)NS(=O)(=O)N(C)C)c(N3CC5CC5C3)c2)CC4)CCN1C (stereo partly drawn) [Example 27, 2-(3-azabicyclo[3.1.0]hexan-3-yl)-N-(N,N-dimethylsulfamoyl)-6-fluoro-4-(8-((R)-3-(methoxymethyl)-4-methylpiperazin-1-yl)-7-methyl-5-oxo-1,3,4,5-tetrahydro-2H-chromeno[3,4-c]pyridine-3-carbonyl)benzamide] | 1 to 10 nM | F (<3) | 1 to 10 nM
CCOc1c(C(=O)NS(=O)(=O)N2C3CCCC2CC3)ccc(C(=O)N2CCc3c(c(=O)oc4c(C)c(N5CCN(C)[C@@H](COC)C5)ccc34)C2)c1F [Example 236] | 10 to 100 nM | F (<3) | 10 to 100 nM
COC[C@H]1CN(c2cc(C)c3c4c(c(=O)oc3c2C)CN(C(=O)c2ccc(C(=O)NS(=O)(=O)N3CCC(F)CC3)cc2F)CC4)CCN1C [Example 204, (R)-3-fluoro-N-((4-fluoropiperidin-1-yl)sulfonyl)-4-(8-(3-(methoxymethyl)-4-methylpiperazin-1-yl)-7,10-dimethyl-5-oxo-1,3,4,5-tetrahydro-2H-chromeno[3,4-c]pyridine-3-carbonyl)benzamide] | 10 to 100 nM | J (>30) | 1000 to 5000 nM
COC[C@H]1CN(c2cc(C)c3c4c(c(=O)oc3c2C)CN(C(=O)c2ccc(C(=O)NS(=O)(=O)N(C)C)c(OC3CCC(F)(F)CC3)c2F)CC4)CCN1C [Example 85, (R)-2-((4,4-difluorocyclohexyl)oxy)-N-(N,N-dimethylsulfamoyl)-3-fluoro-4-(8-(3-(methoxymethyl)-4-methylpiperazin-1-yl)-7,10-dimethyl-5-oxo-1,3,4,5-tetrahydro-2H-chromeno[3,4-c]pyridine-3-carbonyl)benzamide] | 1 to 10 nM | F (<3) | 1 to 10 nM
COC[C@H]1CN(c2cc(C)c3c4c(c(=O)oc3c2C)CN(C(=O)c2cc(OC3CCCC3)c(C(=O)NS(=O)(=O)N(C)C)c(N3CCCC3)c2)CC4)CCN1C [Example 127, (R)-2-(cyclopentyloxy)-N-(N,N-dimethylsulfamoyl)-4-(8-(3-(methoxymethyl)-4-methylpiperazin-1-yl)-7,10-dimethyl-5-oxo-1,3,4,5-tetrahydro-2H-chromeno[3,4-c]pyridine-3-carbonyl)-6-(pyrrolidin-1-yl)benzamide] | 10 to 100 nM | H (>9.0 to 30) | 100 to 1000 nM

Reference: patent US12662489B2 (Sitryx Therapeutics Limited, priority 2023, dated 2026)
